Data taken from ChEMBL document CHEMBL1128462, “In vivo and in vitro studies on the neurotoxic potential of 6-hydroxydopamine analogs” (J Med Chem, 1995).
pEC50, pKi: −log10 of the molar value.

Columns and labels:
Mus musculus [1] = organism: Mus musculus; experiment: Long term depletion of Dopamine(DA) in Whole mouse Brain at a low dose (60 nmol); assay type: functional
[2] = target: Norepinephrine transporter (Rattus norvegicus, UniProt Q9WTR4); experiment: Evaluated for the Competitive inhibition of uptake of norepinephrine
Chain of Norepinephrine transporter (Q9WTR4 whole entry): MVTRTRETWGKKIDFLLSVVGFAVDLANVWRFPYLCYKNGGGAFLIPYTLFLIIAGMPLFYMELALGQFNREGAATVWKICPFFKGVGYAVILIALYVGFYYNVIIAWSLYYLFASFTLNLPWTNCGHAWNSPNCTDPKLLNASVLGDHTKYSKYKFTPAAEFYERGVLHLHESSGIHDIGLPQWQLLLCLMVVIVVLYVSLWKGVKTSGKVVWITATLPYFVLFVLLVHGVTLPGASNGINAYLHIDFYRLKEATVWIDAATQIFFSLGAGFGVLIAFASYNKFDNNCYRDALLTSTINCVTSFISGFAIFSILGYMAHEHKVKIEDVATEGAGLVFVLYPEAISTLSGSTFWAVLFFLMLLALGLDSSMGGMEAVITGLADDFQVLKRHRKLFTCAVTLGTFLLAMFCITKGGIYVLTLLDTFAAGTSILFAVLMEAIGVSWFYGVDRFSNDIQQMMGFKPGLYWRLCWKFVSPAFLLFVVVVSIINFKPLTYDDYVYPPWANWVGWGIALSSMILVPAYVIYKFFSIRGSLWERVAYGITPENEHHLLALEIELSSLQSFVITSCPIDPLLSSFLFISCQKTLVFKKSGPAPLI

Mus musculus [3] = organism: Mus musculus; experiment: Long term depletion of Serotonin(5-HT) in Whole mouse Brain at a high dose (300 nmol); assay type: functional
Rattus norvegicus [4] = organism: Rattus norvegicus; experiment: Evaluated for the stimulation of synaptosomal release of norepinephrine (release constant); assay type: functional
Mus musculus [5] = organism: Mus musculus; experiment: Long term depletion of Serotonin(5-HT) in Whole mouse Brain at a low dose (60 nmol); assay type: functional
Mus musculus [6] = organism: Mus musculus; experiment: Long term depletion of Dopamine(DA) in Whole mouse Brain at a high dose (300 nmol); assay type: functional
[7] = target: Sodium-dependent dopamine transporter (Rattus norvegicus, UniProt P23977); experiment: Evaluated for the Competitive inhibition of uptake of dopamine transporter
Chain of Sodium-dependent dopamine transporter (P23977 whole entry): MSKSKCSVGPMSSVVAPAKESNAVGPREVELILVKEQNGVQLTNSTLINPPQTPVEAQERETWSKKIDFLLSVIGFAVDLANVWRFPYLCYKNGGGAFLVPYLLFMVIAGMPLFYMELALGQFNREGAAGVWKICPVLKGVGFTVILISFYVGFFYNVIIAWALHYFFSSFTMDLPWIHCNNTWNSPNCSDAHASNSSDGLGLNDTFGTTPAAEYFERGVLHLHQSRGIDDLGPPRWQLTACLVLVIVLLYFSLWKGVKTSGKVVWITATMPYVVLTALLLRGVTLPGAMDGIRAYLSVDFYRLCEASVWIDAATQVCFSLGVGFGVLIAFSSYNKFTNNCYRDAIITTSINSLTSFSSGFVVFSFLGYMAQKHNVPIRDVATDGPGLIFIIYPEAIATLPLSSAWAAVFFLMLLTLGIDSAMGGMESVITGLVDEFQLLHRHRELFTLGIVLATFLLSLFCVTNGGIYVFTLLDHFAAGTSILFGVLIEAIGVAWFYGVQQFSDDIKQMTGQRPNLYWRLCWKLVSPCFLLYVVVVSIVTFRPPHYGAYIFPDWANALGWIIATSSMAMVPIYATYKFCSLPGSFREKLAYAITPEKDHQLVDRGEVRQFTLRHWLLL

Mus musculus [8] = organism: Mus musculus; experiment: Long term depletion of Norepinephrine (NE) in Whole mouse Brain at a low dose (60 nmol); assay type: functional
Rattus norvegicus [9] = organism: Rattus norvegicus; experiment: Evaluated for the stimulation of synaptosomal release of Dopamine (release constant); assay type: functional
Mus musculus [10] = organism: Mus musculus; experiment: Long term depletion of Norepinephrine (NE) in Whole mouse Brain at a high dose (300 nmol); assay type: functional
Mus musculus [11] = organism: Mus musculus; experiment: Long term depletion of Serotonin(5-HT) in Whole mouse Brain region of cortex at a high dose (300 nmol); assay type: functional
Mus musculus [12] = organism: Mus musculus; experiment: Long term depletion of Dopamine(DA) in Whole mouse Brain region of striatum at a high dose (300 nmol); assay type: functional
Mus musculus [13] = organism: Mus musculus; experiment: Long term depletion of Dopamine(DA) in Whole mouse Brain region of medulla-pons at a high dose (300 nmol) with respect to control value(100+/-8); assay type: functional
Mus musculus [14] = organism: Mus musculus; experiment: Long term depletion of Norepinephrine (NE) in Whole mouse Brain region of hippocampus at a high dose (300 nmol) with respect to control value(100+/-10); assay type: functional
Mus musculus [15] = organism: Mus musculus; experiment: Long term depletion of Serotonin(5-HT) in Whole mouse Brain region of medulla-pons at a high dose (300 nmol) with respect to control value(100+/-6); assay type: functional
Mus musculus [16] = organism: Mus musculus; experiment: Noradrenergic effect was determined by depletion effect of Serotonin(5-HT) in mouse brain regions expressed as d50; assay type: functional
Mus musculus [17] = organism: Mus musculus; experiment: Long term depletion of Dopamine(DA) in Whole mouse Brain region of hippocampus at a high dose (300 nmol); assay type: functional
Mus musculus [18] = organism: Mus musculus; experiment: Long term depletion of Norepinephrine (NE) in Whole mouse Brain region of medulla-pons at a high dose (300 nmol) with respect to control value(100+/-9); assay type: functional
Mus musculus [19] = organism: Mus musculus; experiment: Long term depletion of Serotonin(5-HT) in Whole mouse Brain region of hippocampus at a high dose (300 nmol); assay type: functional
Mus musculus [20] = organism: Mus musculus; experiment: Long term depletion of Norepinephrine (NE) in Whole mouse Brain, region of midbrain at a high dose (300 nmol) with respect to control value(100+/-8); assay type: functional
Mus musculus [21] = organism: Mus musculus; experiment: Long term depletion of Serotonin(5-HT) in Whole mouse Brain region of striatum at a high dose (300 nmol); assay type: functional
Mus musculus [22] = organism: Mus musculus; experiment: Long term depletion of Serotonin(5-HT) in Whole mouse Brain region of thalamus at a high dose (300 nmol); assay type: functional
Mus musculus [23] = organism: Mus musculus; experiment: Noradrenergic effect was determined by depletion effect of Dopamine(DA) in mouse brain regions expressed as log d50; assay type: functional, organism-based
Mus musculus [24] = organism: Mus musculus; experiment: Long term depletion of Dopamine(DA) in Whole mouse Brain region of cerebellum at a high dose (300 nmol) with respect to control value(100+/-9); assay type: functional
Mus musculus [25] = organism: Mus musculus; experiment: Noradrenergic effect was determined by depletion effect of Nerepinephrine (NE) in mouse brain regions expressed as log d50; assay type: functional, organism-based
Mus musculus [26] = organism: Mus musculus; experiment: Long term depletion of Dopamine(DA) in Whole mouse Brain region of thalamus at a high dose (300 nmol); assay type: functional
Mus musculus [27] = organism: Mus musculus; experiment: Long term depletion of Dopamine(DA) in Whole mouse Brain region of hypothalamus at a high dose (300 nmol) with respect to control value(100+/-14); assay type: functional
Mus musculus [28] = organism: Mus musculus; experiment: Long term depletion of Norepinephrine (NE) in Whole mouse Brain region of striatum at a high dose (300 nmol); assay type: functional
Mus musculus [29] = organism: Mus musculus; experiment: Long term depletion of Norepinephrine (NE) in Whole mouse Brain region of cortex at a high dose (300 nmol) with respect to control value(100+/-6); assay type: functional
Mus musculus [30] = organism: Mus musculus; experiment: Long term depletion of Serotonin(5-HT) in Whole mouse Brain region of cerebellum at a high dose (300 nmol); assay type: functional
Mus musculus [31] = organism: Mus musculus; experiment: Long term depletion of Dopamine(DA) in Whole mouse Brain region of cortex at a high dose (300 nmol); assay type: functional
Mus musculus [32] = organism: Mus musculus; experiment: Noradrenergic effect was determined by depletion effect of Dopamine(DA) in mouse brain regions expressed as d50; assay type: functional
Mus musculus [33] = organism: Mus musculus; experiment: Noradrenergic effect was determined by depletion effect of Serotonin(5-HT) in mouse brain regions expressed as log d50; assay type: functional, organism-based
Mus musculus [34] = organism: Mus musculus; experiment: Long term depletion of Dopamine(DA) in Whole mouse Brain, region of midbrain at a high dose (300 nmol); assay type: functional
Mus musculus [35] = organism: Mus musculus; experiment: Noradrenergic effect was determined by depletion effect of Nerepinephrine (NE) in mouse brain regions expressed as d50; assay type: functional
Mus musculus [36] = organism: Mus musculus; experiment: Long term depletion of Norepinephrine (NE) in Whole mouse Brain region of cerebellum at a high dose (300 nmol); assay type: functional
Mus musculus [37] = organism: Mus musculus; experiment: Long term depletion of Norepinephrine (NE) in Whole mouse Brain region of thalamus at a high dose (300 nmol); assay type: functional
Mus musculus [38] = organism: Mus musculus; experiment: Long term depletion of Norepinephrine (NE) in Whole mouse Brain region of hypothalamus at a high dose (300 nmol); assay type: functional
Mus musculus [39] = organism: Mus musculus; experiment: Long term depletion of Serotonin(5-HT) in Whole mouse Brain region of hypothalamus at a high dose (300 nmol); assay type: functional
Mus musculus [40] = organism: Mus musculus; experiment: Long term depletion of Serotonin(5-HT) in Whole mouse Brain, region of midbrain at a high dose (300 nmol); assay type: functional
Mus musculus [41] = organism: Mus musculus; experiment: Long term depletion of Norepinephrine (NE) in Whole mouse Brain region of medulla-pons at a high dose (300 nmol); assay type: functional
Mus musculus [42] = organism: Mus musculus; experiment: Long term depletion of Serotonin(5-HT) in Whole mouse Brain region of medulla-pons at a high dose (300 nmol); assay type: functional
Mus musculus [43] = organism: Mus musculus; experiment: Long term depletion of Dopamine(DA) in Whole mouse Brain region of hypothalamus at a high dose (300 nmol); assay type: functional
Mus musculus [44] = organism: Mus musculus; experiment: Long term depletion of Norepinephrine (NE) in Whole mouse Brain region of cortex at a high dose (300 nmol); assay type: functional
Mus musculus [45] = organism: Mus musculus; experiment: Long term depletion of Norepinephrine (NE) in Whole mouse Brain region of hippocampus at a high dose (300 nmol); assay type: functional
Mus musculus [46] = organism: Mus musculus; experiment: Long term depletion of Dopamine(DA) in Whole mouse Brain region of medulla-pons at a high dose (300 nmol); assay type: functional
Mus musculus [47] = organism: Mus musculus; experiment: Long term depletion of Norepinephrine (NE) in Whole mouse Brain, region of midbrain at a high dose (300 nmol); assay type: functional
Mus musculus [48] = organism: Mus musculus; experiment: Long term depletion of Dopamine(DA) in Whole mouse Brain region of cerebellum at a high dose (300 nmol); assay type: functional

SMILES: NCCc1cc(O)c(O)cc1N
- Control (Mus musculus [1]): 90%
- pKi [2]: 7.96
- Control (Mus musculus [3]): 74%
- pEC50 (Rattus norvegicus [4]): 4.64
- Control (Mus musculus [5]): 78%
- percent of control (Mus musculus [6]): 79%
- pKi [7]: 7.77
- Control (Mus musculus [8]): 40%
- pEC50 (Rattus norvegicus [9]): 5.52
- Control (Mus musculus [10]): 37%

SMILES: NCCc1cc(N)c(O)cc1O
- Control (Mus musculus [1]): 96%
- pKi [2]: 7.89
- Control (Mus musculus [3]): 96%
- pEC50 (Rattus norvegicus [4]): 3.67
- Control (Mus musculus [5]): 91%
- percent of control (Mus musculus [6]): 84%
- pKi [7]: 7.33
- Control (Mus musculus [8]): 40%
- pEC50 (Rattus norvegicus [9]): 3.98
- Control (Mus musculus [10]): 36%

SMILES: NCCc1cc(O)c(O)cc1O [OXIDOPAMINE]
- Control (Mus musculus [11]): 82%
- Control (Mus musculus [1]): 86%
- Control (Mus musculus [12]): 76%
- Control (Mus musculus [13]): 158%
- Control (Mus musculus [14]): 5.3%
- pKi [2]: 7.29
- Control (Mus musculus [15]): 109%
- d50 (Mus musculus [16]): 1930 nmol
- Control (Mus musculus [17]): 25%
- Control (Mus musculus [3]): 88%
- Control (Mus musculus [18]): 47%
- pEC50 (Rattus norvegicus [4]): 3.08
- Control (Mus musculus [19]): 71%
- Control (Mus musculus [20]): 70%
- Control (Mus musculus [21]): 103%
- Control (Mus musculus [22]): 90%
- Log d50 (Mus musculus [23]): 2.92 nM
- Control (Mus musculus [24]): 72%
- Log d50 (Mus musculus [25]): 1.53 nM
- Control (Mus musculus [26]): 151%
- Control (Mus musculus [27]): 116%
- Control (Mus musculus [28]): 23%
- Control (Mus musculus [29]): 9%
- Control (Mus musculus [30]): 79%
- percent of control (Mus musculus [6]): 71%
- Control (Mus musculus [31]): 53%
- d50 (Mus musculus [32]): 831 nmol
- Log d50 (Mus musculus [33]): 3.28 nM
- Control (Mus musculus [34]): 88%
- d50 (Mus musculus [35]): 34.3 nmol
- Control (Mus musculus [36]): 3.8%
- Control (Mus musculus [37]): 18%
- Control (Mus musculus [38]): 6.9%
- Control (Mus musculus [39]): 89%
- pKi [7]: 7.92
- Control (Mus musculus [8]): 40%
- Control (Mus musculus [40]): 89%
- pEC50 (Rattus norvegicus [9]): 4.22
- Control (Mus musculus [10]): 35%

SMILES: CC(N)Cc1cc(N)c(O)cc1O (centres undefined)
- Control (Mus musculus [11]): 78%
- Control (Mus musculus [1]): 100%
- Control (Mus musculus [41]): 59%
- Control (Mus musculus [42]): 101%
- Control (Mus musculus [12]): 71%
- pKi [2]: 7.34
- d50 (Mus musculus [16]): 3220 nmol
- Control (Mus musculus [17]): 42%
- Control (Mus musculus [43]): 120%
- Control (Mus musculus [3]): 83%
- pEC50 (Rattus norvegicus [4]): 3.17
- Control (Mus musculus [5]): 103%
- Control (Mus musculus [19]): 63%
- Control (Mus musculus [21]): 104%
- Control (Mus musculus [22]): 93%
- Log d50 (Mus musculus [23]): 2.96 nM
- Control (Mus musculus [44]): 8%
- Log d50 (Mus musculus [25]): 1.33 nM
- Control (Mus musculus [26]): 154%
- Control (Mus musculus [45]): 6.4%
- Control (Mus musculus [28]): 7%
- Control (Mus musculus [30]): 77%
- percent of control (Mus musculus [6]): 74%
- Control (Mus musculus [31]): 57%
- Control (Mus musculus [46]): 110%
- d50 (Mus musculus [32]): 918 nmol
- Log d50 (Mus musculus [33]): 3.51 nM
- Control (Mus musculus [34]): 116%
- d50 (Mus musculus [35]): 21.5 nmol
- Control (Mus musculus [36]): 3.4%
- Control (Mus musculus [37]): 14%
- Control (Mus musculus [38]): 1.3%
- Control (Mus musculus [39]): 75%
- pKi [7]: 6.95
- Control (Mus musculus [8]): 26%
- Control (Mus musculus [40]): 75%
- Control (Mus musculus [47]): 74%
- pEC50 (Rattus norvegicus [9]): 3.42
- Control (Mus musculus [10]): 22%
- Control (Mus musculus [48]): 63%
